ChEMBL document CHEMBL1136143, “Synthesis and activity of novel benzoxazole derivatives of mannopeptimycin glycopeptide antibiotics” (2003)
Converted amounts (≈) assume the structure as drawn.

Experiments:
[1] = tested on: Staphylococcus haemolyticus; experiment: In vitro minimum inhibitory concentration against methicillin-resistant Coagulase-negative Staphylococci (MRCNS) (GC 4547)); format: functional
Staphylococcus aureus [2] = experiment: In vitro minimum inhibitory concentration against Methicillin-resistant Staphylococcus aureus (GC 1131); format: functional
Staphylococcus aureus [3] = experiment: In vitro minimum inhibitory concentration against glycopeptide tntermediate Staphylococcus aureus (GC 3066); format: functional
Enterococcus faecalis [4] = experiment: In vitro minimum inhibitory concentration against vancomycin-resistant Enterococcus faecalis (GC 2242); format: functional
Streptococcus pneumoniae [5] = experiment: In vitro minimum inhibitory concentration against Penicillin susceptible Streptococcus pneumoniae (GC 4565)
[6] = tested on: Staphylococcus haemolyticus; experiment: In vitro minimum inhibitory concentration against methicillin-susceptible Coagulase-negative Staphylococci (MSCNS) (GC 4549)); format: functional
[7] = tested on: Staphylococcus haemolyticus; experiment: In vitro minimum inhibitory concentration against methicillin-susceptible Coagulase-negative Staphylococci (MSCNS) (GC 4551); format: functional
Staphylococcus aureus [8] = experiment: In vitro minimum inhibitory concentration against Methicillin-resistant Staphylococcus aureus (GC 4542); format: functional
Streptococcus = experiment: In vitro minimum inhibitory concentration against Streptococcus Species (5 strains, including PRSP); format: functional
Enterococcus faecalis [9] = experiment: In vitro minimum inhibitory concentration against vancomycin-susceptible Enterococcus faecalis (GC 4555); format: functional
[10] = tested on: Staphylococcus haemolyticus; experiment: In vitro minimum inhibitory concentration against methicillin-resistant Coagulase-negative Staphylococci (MRCNS) hemolyticu (GC 4546)); format: functional
Staphylococcus aureus [11] = experiment: In vitro minimum inhibitory concentration against Methicillin-susceptible Staphylococcus aureus (GC 4543); format: functional
Staphylococcus aureus [12] = experiment: In vitro minimum inhibitory concentration against Methicillin-susceptible Staphylococcus aureus (GC 2216); format: functional
Enterococcus faecalis [13] = experiment: In vitro minimum inhibitory concentration against vancomycin-resistant Enterococcus faecalis (GC 6189); format: functional
Enterococcus faecalis [14] = experiment: In vitro minimum inhibitory concentration against vancomycin-susceptible Enterococcus faecalis (GC 4552); format: functional
[15] = tested on: Staphylococcus haemolyticus; experiment: In vitro minimum inhibitory concentration against methicillin-resistant Coagulase-negative Staphylococci (MRCNS) (GC 4548)); format: functional
Enterococcus faecalis [16] = experiment: In vitro minimum inhibitory concentration against vancomycin-susceptible Enterococcus faecalis (GC 4554); format: functional
Staphylococcus aureus [17] = experiment: In vitro minimum inhibitory concentration against Methicillin-susceptible Staphylococcus aureus(GC 4545); format: functional
[18] = tested on: Staphylococcus haemolyticus; experiment: In vitro minimum inhibitory concentration against methicillin-susceptible Coagulase-negative Staphylococci (MSCNS) (GC 6257); format: functional
Enterococcus faecium [19] = experiment: In vitro minimum inhibitory concentration against vancomycin-susceptible Enterococcus faecium (GC 4556)
Streptococcus agalactiae [20] = experiment: In vitro minimum inhibitory concentration against Streptococcus agalactiae (GC4564)
Staphylococcus aureus [21] = experiment: In vitro minimum inhibitory concentration against glycopeptide tntermediate Staphylococcus aureus (GC 3051); format: functional
Enterococcus faecalis [22] = experiment: In vitro minimum inhibitory concentration against vancomycin-resistant Enterococcus faecalis (GC 3059); format: functional
Streptococcus pneumoniae [23] = experiment: In vitro minimum inhibitory concentration against Penicillin resistant Streptococcus pneumoniae (GC 1894); format: functional
Staphylococcus aureus [24] = experiment: In vitro minimum inhibitory concentration against Methicillin-resistant Staphylococcus aureus(GC 4541); format: functional
Enterococcus faecalis [25] = experiment: In vitro minimum inhibitory concentration against vancomycin-susceptible Enterococcus faecalis (GC 2691); format: functional
Enterococcus faecalis [26] = experiment: In vitro minimum inhibitory concentration against vancomycin-susceptible Enterococcus faecalis (GC 4553); format: functional
Streptococcus pneumoniae [27] = experiment: In vitro minimum inhibitory concentration against Penicillin susceptible Streptococcus pneumoniae (GC 6242); format: functional
Enterococcus faecium [28] = experiment: In vitro minimum inhibitory concentration against vancomycin-resistant Enterococcus faecium (GC 2243)
Micrococcus luteus = experiment: In vitro minimum inhibitory concentration against Micrococcus lutea (GC 4562); format: functional
Enterococcus sp. = experiment: In vitro minimum inhibitory concentration against Enterococcus species (11 strains, including VRE); format: functional
Streptococcus pyogenes = experiment: In vitro minimum inhibitory concentration against Streptococcus pyogenes (GC 4563); format: functional
Staphylococcus aureus [29] = experiment: In vitro minimum inhibitory concentration against Staphylococcus aureus (10strains, including MRSA); format: functional
Enterococcus faecium [30] = experiment: In vitro minimum inhibitory concentration against vancomycin-susceptible Enterococcus faecium (GC 4557)
Bacillus cereus = experiment: In vitro minimum inhibitory concentration against Bacillus cereus (GC 4561) assay organism; format: functional
Staphylococcus aureus [31] = experiment: In vitro minimum inhibitory concentration against Methicillin-susceptible Staphylococcus aureus(GC 4544); format: functional
Enterococcus faecium [32] = experiment: In vitro minimum inhibitory concentration against vancomycin-resistant Enterococcus faecium (GC 4558)
Staphylococcus aureus [33] = experiment: In vitro minimum inhibitory concentration against Staphylococcus aureus; format: functional
Streptococcus pneumoniae [34] = experiment: In vitro minimum inhibitory concentration against Penicillin susceptible Streptococcus pneumoniae (GC 4565); format: functional
[35] = tested on: Staphylococcus haemolyticus; experiment: In vitro minimum inhibitory concentration against methicillin-resistant Coagulase-negative Staphylococci (MRCNS) (GC 4546); format: functional
[36] = tested on: Staphylococcus haemolyticus; experiment: In vitro minimum inhibitory concentration against methicillin-resistant Coagulase-negative Staphylococci (MRCNS) (GC 4547); format: functional
Enterococcus faecium [37] = experiment: In vitro minimum inhibitory concentration against vancomycin-resistant Enterococcus faecium (GC 2243); format: functional
Streptococcus agalactiae [38] = experiment: In vitro minimum inhibitory concentration against Streptococcus agalactiae (GC4564); format: functional
Enterococcus faecium [39] = experiment: In vitro minimum inhibitory concentration against vancomycin-susceptible Enterococcus faecium (GC 4556); format: functional
[40] = tested on: Staphylococcus haemolyticus; experiment: In vitro minimum inhibitory concentration against methicillin-resistant Coagulase-negative Staphylococci (MRCNS) (GC 4548); format: functional
Enterococcus faecium [41] = experiment: In vitro minimum inhibitory concentration against vancomycin-resistant Enterococcus faecium (GC 4558); format: functional
[42] = tested on: Staphylococcus haemolyticus; experiment: In vitro minimum inhibitory concentration against methicillin-susceptible Coagulase-negative Staphylococci (MSCNS) (GC 4549); format: functional
Enterococcus faecium [43] = experiment: In vitro minimum inhibitory concentration against vancomycin-susceptible Enterococcus faecium (GC 4557); format: functional

Row | Compound | MIC (Staphylococcus aureus [2]) | MIC (Staphylococcus aureus [3]) | MIC (Enterococcus faecalis [4]) | MIC [7] | MIC (Staphylococcus aureus [8]) | MIC (Streptococcus) | MIC (Enterococcus faecalis [9]) | MIC (Staphylococcus aureus [11]) | MIC (Staphylococcus aureus [12]) | MIC (Enterococcus faecalis [13]) | MIC (Enterococcus faecalis [14]) | MIC (Enterococcus faecalis [16]) | MIC (Staphylococcus aureus [17]) | MIC [18] | MIC (Staphylococcus aureus [21]) | MIC (Enterococcus faecalis [22]) | MIC (Streptococcus pneumoniae [23]) | MIC (Staphylococcus aureus [24]) | MIC (Enterococcus faecalis [25]) | MIC (Enterococcus sp.) | other results
1 | C[C@@H](c1ccccc1)[C@@H]1NC(=O)CNC(=O)[C@H](CO)NC(=O)[C@@H]([C@@H](O)[C@@H]2CN=C(N)N2[C@H]2O[C@H](CO)[C@@H](O)[C@H](O)[C@@H]2O)NC(=O)[C@H]([C@H](O)[C@@H]2CN=C(N)N2)NC(=O)[C@@H](Cc2ccc3nc(-c4ccc(N(C)C)cc4)oc3c2)NC1=O | 8 µg/mL (≈ 7.17 µM) | 8 µg/mL (≈ 7.17 µM) | 32 µg/mL (≈ 28.7 µM) | 8 µg/mL (≈ 7.17 µM) | 8 µg/mL (≈ 7.17 µM) | 16 µg/mL (≈ 14.3 µM) | 32 µg/mL (≈ 28.7 µM) | 8 µg/mL (≈ 7.17 µM) | 8 µg/mL (≈ 7.17 µM) | 32 µg/mL (≈ 28.7 µM) | 64 µg/mL (≈ 57.4 µM) | 32 µg/mL (≈ 28.7 µM) | 8 µg/mL (≈ 7.17 µM) | 4 µg/mL (≈ 3.59 µM) | 8 µg/mL (≈ 7.17 µM) | 64 µg/mL (≈ 57.4 µM) | 32 µg/mL (≈ 28.7 µM) | 8 µg/mL (≈ 7.17 µM) | 32 µg/mL (≈ 28.7 µM) | 8 µg/mL (≈ 7.17 µM) | MIC [1]: 4 µg/mL (≈ 3.59 µM); MIC (Streptococcus pneumoniae [5]): 32 µg/mL (≈ 28.7 µM); MIC [6]: 2 µg/mL (≈ 1.79 µM); MIC [10]: 4 µg/mL (≈ 3.59 µM); MIC [15]: 4 µg/mL (≈ 3.59 µM); MIC (Enterococcus faecium [19]): 64 µg/mL (≈ 57.4 µM); MIC (Streptococcus agalactiae [20]): 32 µg/mL (≈ 28.7 µM); MIC (Enterococcus faecalis [26]): 16 µg/mL (≈ 14.3 µM); MIC (Streptococcus pneumoniae [27]): 32 µg/mL (≈ 28.7 µM); MIC (Enterococcus faecium [28]): 16 µg/mL (≈ 14.3 µM); MIC (Micrococcus luteus): 2 µg/mL (≈ 1.79 µM); MIC (Streptococcus pyogenes): 16 µg/mL (≈ 14.3 µM); MIC (Staphylococcus aureus [29]): 8 µg/mL (≈ 7.17 µM); MIC (Enterococcus faecium [30]): 8 µg/mL (≈ 7.17 µM); MIC (Bacillus cereus): 32 µg/mL (≈ 28.7 µM); MIC (Staphylococcus aureus [31]): 8 µg/mL (≈ 7.17 µM); MIC (Enterococcus faecium [32]): 16 µg/mL (≈ 14.3 µM)
2 | C[C@@H](c1ccccc1)[C@@H]1NC(=O)CNC(=O)[C@H](CO)NC(=O)[C@@H]([C@@H](O)[C@@H]2CN=C(N)N2[C@H]2O[C@H](CO)[C@@H](O)[C@H](O)[C@@H]2O)NC(=O)[C@H]([C@H](O)[C@@H]2CN=C(N)N2)NC(=O)[C@@H](Cc2ccc(O)cc2)NC1=O | – | – | – | – | – | – | – | – | – | – | – | – | – | – | – | – | – | – | – | 32 µg/mL (≈ 33 µM) | MIC (Staphylococcus aureus [33]): 64 µg/mL (≈ 65.9 µM)
3 | CCN1CCN(C(=O)N[C@@H](C(=O)N[C@@H]2C(=O)N3[C@@H]2SC(C)(C)[C@@H]3C(=O)O)c2ccccc2)C(=O)C1=O [PIPERACILLIN] | > 64 µg/mL | 0.5 µg/mL (≈ 0.966 µM) | 2 µg/mL (≈ 3.86 µM) | 4 µg/mL (≈ 7.73 µM) | 64 µg/mL (≈ 124 µM) | < 0.12 µg/mL | 1 µg/mL (≈ 1.93 µM) | 1 µg/mL (≈ 1.93 µM) | 4 µg/mL (≈ 7.73 µM) | 2 µg/mL (≈ 3.86 µM) | 2 µg/mL (≈ 3.86 µM) | 1 µg/mL (≈ 1.93 µM) | 8 µg/mL (≈ 15.5 µM) | 4 µg/mL (≈ 7.73 µM) | 64 µg/mL (≈ 124 µM) | 2 µg/mL (≈ 3.86 µM) | 2 µg/mL (≈ 3.86 µM) | > 64 µg/mL | 2 µg/mL (≈ 3.86 µM) | 0.25 µg/mL (≈ 0.483 µM) | MIC (Streptococcus pneumoniae [34]): < 0.006 µg/mL; MIC [35]: > 64 µg/mL; MIC [36]: > 64 µg/mL; MIC (Enterococcus faecium [37]): 64 µg/mL (≈ 124 µM); MIC (Streptococcus agalactiae [38]): 0.12 µg/mL (≈ 0.232 µM); MIC (Enterococcus faecalis [26]): > 64 µg/mL; MIC (Streptococcus pneumoniae [27]): < 0.06 µg/mL; MIC (Micrococcus luteus): < 0.06 µg/mL; MIC (Enterococcus faecium [39]): 1 µg/mL (≈ 1.93 µM); MIC [40]: 16 µg/mL (≈ 30.9 µM); MIC (Enterococcus faecium [41]): > 64 µg/mL; MIC (Streptococcus pyogenes): < 0.006 µg/mL; MIC (Staphylococcus aureus [29]): 0.5 µg/mL (≈ 0.966 µM); MIC (Bacillus cereus): 1 µg/mL (≈ 1.93 µM); MIC [42]: 32 µg/mL (≈ 61.8 µM); MIC (Enterococcus faecium [43]): 0.12 µg/mL (≈ 0.232 µM); MIC (Staphylococcus aureus [31]): 4 µg/mL (≈ 7.73 µM)
